What is called IC50 is the concentration that gives 50% inhibition.

In the assay the test system is Palmitoyl CoA oxidation in rat heart mitochondria. Briefly: Palmitoyl CoA oxidation in isolated rat heart mitochondria (Mitochondrial Assays). In kind it is biochemical. To be noted: 1-C14 palmitoyl CoA, 15 min at 30° C., read-out: Palm CoA inhibition IC50. On the procedure: Rat heart mitochondria are isolated by the method of Nedergard and Cannon (Methods in Enzymol. 55, 3, 1979).
Palmitoyl CoA oxidation—The Palmityl CoA oxidation is carried out in a total volume of 100 micro liters containing the following agents: 110 mM KCl, 33 mM Tris buffer at pH 8, 2 mM KPi, 2 mM MgCl2, 0.1 mM EDTA, 14.7 microM defatted BSA, 0.5 mM malic acid, 13 mM carnitine, 1 mM ADP, 52 micrograms of mitochondrial protein, and 16 microM 1-C14 palmitoyl CoA (Sp. Activity 60 mCi/mmole; 20 microCi/ml, using 5 microliters per assay). The compounds of this invention are added in a DMSO solution at the following concentrations: 100 micro molar, 30 micro molar, and 3 micro molar. In each assay, a DMSO control is used. After 15 min at 30° C., the enzymatic reaction is centrifuged (20,000 g for 1 min), and 70 microliters of the supernatant is added to an activated reverse phase silicic acid column (approximately 0.5 ml of silicic acid). The column is eluted with 2 ml of water, and 0.5 ml of the eluent is used for scintillation counting to determine the amount of C^14 trapped as C^14 bicarbonate ion.

`Cc1nc2cc(OCC(CN3CCN(CC(=O)Nc4cccc(-c5ccccc5)c4)CC3)NS(C)(=O)=O)ccc2s1` (stereo not shown) [2-(4-{3-(2-methylbenzothiazol-5-yloxy)-2-[(methylsulfonyl)amino]propyl}piperazinyl)-N-(3-phenylphenyl)acetamide]: the IC50 stood at 2.9 µM.

Consider `CC(=O)NC(COc1ccc2sc(C)nc2c1)CN1CCN(CC(=O)Nc2cccc(-c3ccccc3)c2)CC1` (stereo not shown) [2-{4-[2-(acetylamino)-3-(2-methylbenzothiazol-5-yloxy)propyl]piperazinyl}-N-(3-phenylphenyl)acetamide], for which the half-maximal inhibitory concentration (IC50) is 12.7 µM.

Consider `CC(=O)NC(COc1ccc2sc(C)nc2c1)CN1CCN(C(=O)Nc2ccc3c(c2)Cc2ccccc2-3)CC1` (stereo not shown) [N-{2-[4-(N-fluoren-2-ylcarbamoyl)piperazinyl]-1-[(2-methylbenzothiazol-5-yloxy)methyl]ethyl}acetamide], for which the IC50 came out at 8.2 µM.

Turning to “N-fluoren-2-yl(4-{3-(2-methylbenzothiazol-5-yloxy)-2-[(methylsulfonyl)amino]propyl}-piperazinyl)carboxamide”, the 50% inhibitory concentration (IC50) worked out at 3 µM.

Values taken from patent publication US7601721B2, “Substituted heterocyclic compounds” (Gilead Palo Alto, Inc., priority 2004, dated 2009).
